Measured values published in article PMC4494927, “Discovery of a small molecule targeting SET-PP2A interaction to overcome BCR-ABLT315I mutation of chronic myeloid leukemia” (Oncotarget, 2015).

What was measured:
tubulin = test: Microtubule assembly assay in K562 cells; format: cell-based, human; conditions: 24 h
Protocol: Separation of insoluble polymerized tubulin from soluble tubulin dimers and analysis of the effects of TGI1002 on tubulin polymerization were performed as described previously. In brief, K562 cells at a density of 1 × 10^6/100 mm^2 dishes were treated with indicated concentrations of TGI1002 at 24 h. Cells were washed with PBS for three times before adding polymerization lysate buffer containing 20 mM Tris-HCl (pH6.8), 1 mM MgCl2, 2 mM EGTA, […] aprotinin, […] leupeptin, 1 mM phenylmethylsulfonyl fluoride, 1 mM orthovanadate and 0.5% Nonidet. After centrifugation at 15,000 x g for 10 min at 4 °C, the pellets were resuspended in SDS-PAGE loading buffer and dissolved by heating at 95 °C for 10 min. Beta-tubulin was then Western blotted from both pellets (containing polymerized microtubules) and supernatants (containing depolymerized microtubules).

PP2A = test: PP2Ac immunoprecipitation phosphatase assay in K562 cells; format: cell-based, human; conditions: 10 μM, 24 h
Protocol: PP2A assay from whole cell lysates was carried out using commercial PP2Ac immunoprecipitation phosphatase assay kit (Millipore). Briefly, 200 μg protein lysates prepared as described above, 4 μg PP2Ac-specific antibody, and 40 μL protein A-agarose were added to TBS buffer (20 mM Tris-HCl, 150 mM NaCl, and 0.1% Tween 20) to a final volume of 500 μL and immunoprecipitation was carried out at 4 °C for 2 h. The immunoprecipitates were used in the phosphatase reaction following the manufacturer's protocol.

ABL2 = ABL2 (Homo sapiens, UniProt P42684); test: In vitro kinase assay (Kinase-Glo / ADP-Glo); format: biochemical; conditions: TGI1002 1 µM; means of two independent experiments; read-out: Inhibitory effect (%)
Protocol: (§1) All kinase reactions were carried out in 384-well plates. After addition of the compounds, kinase and ATP-substrate were added to the assay plates successively, the assay plates were centrifuged at 1,000 x g for 1 min and incubated for 1 h at 30 °C. Then, Kinase-Glo Plus or ADP-Glo reagent was added to each well. In Kinase-Glo assay, after addition of the reagent for 20 min, the luminescence was measured on an EnVision Multilabel Plate Reader (Perkin-Elmer). In ADP-Glo assay, after addition of the reagent for 40 min, Kinase Detection Reagent was added and incubated for another 30 min at 27 °C, and then the luminescence was measured. Kinase inhibition rates were calculated per manufacturer's instructions.

PI3Kγ = PI3Kγ (Homo sapiens, UniProt P48736); test: In vitro kinase assay (Kinase-Glo / ADP-Glo); format: biochemical; conditions: TGI1002 1 µM; means of two independent experiments; read-out: Inhibitory effect (%)
Protocol: as §1

FLT1(VEGFR1) = FLT1(VEGFR1) (Homo sapiens, UniProt P17948); test: In vitro kinase assay (Kinase-Glo / ADP-Glo); format: biochemical; conditions: TGI1002 1 µM; means of two independent experiments; read-out: Inhibitory effect (%)
Protocol: as §1

p38α = p38α (Homo sapiens, UniProt Q16539); test: In vitro kinase assay (Kinase-Glo / ADP-Glo); format: biochemical; conditions: TGI1002 1 µM; means of two independent experiments; read-out: Inhibitory effect (%)
Protocol: as §1

RON = RON (Homo sapiens, UniProt Q04912); test: In vitro kinase assay (Kinase-Glo / ADP-Glo); format: biochemical; conditions: TGI1002 1 µM; means of two independent experiments; read-out: Inhibitory effect (%)
Protocol: as §1

EphA1 = EphA1 (Homo sapiens, UniProt P21709); test: In vitro kinase assay (Kinase-Glo / ADP-Glo); format: biochemical; conditions: TGI1002 1 µM; means of two independent experiments; read-out: Inhibitory effect (%)
Protocol: as §1

NEK2 = NEK2 (Homo sapiens, UniProt P51955); test: In vitro kinase assay (Kinase-Glo / ADP-Glo); format: biochemical; conditions: TGI1002 1 µM; means of two independent experiments; read-out: Inhibitory effect (%)
Protocol: as §1

PI3Kβ = PI3Kβ (Homo sapiens, UniProt P42338); test: In vitro kinase assay (Kinase-Glo / ADP-Glo); format: biochemical; conditions: TGI1002 1 µM; means of two independent experiments; read-out: Inhibitory effect (%)
Protocol: as §1

CHK1 = CHK1 (Homo sapiens, UniProt O14757); test: In vitro kinase assay (Kinase-Glo / ADP-Glo); format: biochemical; conditions: TGI1002 1 µM; means of two independent experiments; read-out: Inhibitory effect (%)
Protocol: as §1

TrkA = TrkA (Homo sapiens, UniProt P04629); test: In vitro kinase assay (Kinase-Glo / ADP-Glo); format: biochemical; conditions: TGI1002 1 µM; means of two independent experiments; read-out: Inhibitory effect (%)
Protocol: as §1

PKCγ = PKCγ (Homo sapiens, UniProt P05129); test: In vitro kinase assay (Kinase-Glo / ADP-Glo); format: biochemical; conditions: TGI1002 1 µM; means of two independent experiments; read-out: Inhibitory effect (%)
Protocol: as §1

RAF1 = RAF1 (Homo sapiens, UniProt P04049); test: In vitro kinase assay (Kinase-Glo / ADP-Glo); format: biochemical; conditions: TGI1002 1 µM; means of two independent experiments; read-out: Inhibitory effect (%)
Protocol: as §1

AKT1 = AKT1 (Homo sapiens, UniProt P31749); test: In vitro kinase assay (Kinase-Glo / ADP-Glo); format: biochemical; conditions: TGI1002 1 µM; means of two independent experiments; read-out: Inhibitory effect (%)
Protocol: as §1

TrkB = TrkB (Homo sapiens, UniProt Q16620); test: In vitro kinase assay (Kinase-Glo / ADP-Glo); format: biochemical; conditions: TGI1002 1 µM; means of two independent experiments; read-out: Inhibitory effect (%)
Protocol: as §1

FGR = FGR (Homo sapiens, UniProt P09769); test: In vitro kinase assay (Kinase-Glo / ADP-Glo); format: biochemical; conditions: TGI1002 1 µM; means of two independent experiments; read-out: Inhibitory effect (%)
Protocol: as §1

c-KIT(V654A) = c-KIT(V654A) (Homo sapiens, UniProt P10721, V654A); test: In vitro kinase assay (Kinase-Glo / ADP-Glo); format: biochemical; conditions: TGI1002 1 µM; means of two independent experiments; read-out: Inhibitory effect (%)
Protocol: as §1

BRAF = BRAF (Homo sapiens, UniProt P15056); test: In vitro kinase assay (Kinase-Glo / ADP-Glo); format: biochemical; conditions: TGI1002 1 µM; means of two independent experiments; read-out: Inhibitory effect (%)
Protocol: as §1

SRC = SRC (Homo sapiens, UniProt P12931); test: In vitro kinase assay (Kinase-Glo / ADP-Glo); format: biochemical; conditions: TGI1002 1 µM; means of two independent experiments; read-out: Inhibitory effect (%)
Protocol: as §1

PDGFRα = PDGFRα (Homo sapiens, UniProt P16234); test: In vitro kinase assay (Kinase-Glo / ADP-Glo); format: biochemical
Protocol: as §1

AMPK (A1/B1/G1) = AMPK (A1/B1/G1) (Homo sapiens, UniProt Q13131); test: In vitro kinase assay (Kinase-Glo / ADP-Glo); format: biochemical; conditions: TGI1002 1 µM; means of two independent experiments; read-out: Inhibitory effect (%)
Protocol: as §1

EGFR = EGFR (Homo sapiens, UniProt P00533); test: In vitro kinase assay (Kinase-Glo / ADP-Glo); format: biochemical; conditions: TGI1002 1 µM; means of two independent experiments; read-out: Inhibitory effect (%)
Protocol: as §1

c-KIT = c-KIT (Homo sapiens, UniProt P10721); test: In vitro kinase assay (Kinase-Glo / ADP-Glo); format: biochemical; conditions: TGI1002 1 µM; means of two independent experiments; read-out: Inhibitory effect (%)
Protocol: as §1

BaF3-p210^T315I cells = test: Survival study, intravenously injected tumor cells; format: in vivo, BALB/c mice; conditions: 30 mg/kg i.p. once daily from day 5; vehicle 25.5 days
Protocol: In survival study, BaF3-p210^T315I cells were injected into the tail vein of BALB/c mice (100 μL of a 1 × 10^7 cells suspension in serum free medium). […] Moribund animals were sacrificed as per institutional and national guidelines. Survival data were analyzed by the Kaplan Meier method and compared using the log-rank test.

HT-29 cells = test: Cytotoxicity assay (CellTiter-Glo); format: cell-based, human; conditions: 120 h, panel of 20 tumor cell lines
Protocol: (§2) Twenty types of tumor cell lines were seeded at 4000 cells per well in 96-well plates. TGI1002 dissolved in phosphate saline was added to cells at final concentrations ranging from 0.5 nM to 100 μM for 120 h. Cell viability was measured with the CellTiter-Glo Luminescent Cell Viability Assay (Promega) according to the manufacturer's instructions. Luminescence was measured using an EnVision Multilabel Plate Reader (Perkin-Elmer). The cytotoxicity of TGI1002 was expressed as the percentage of luminescence relative to that of untreated cells.

PC-3 cells = test: Cytotoxicity assay (CellTiter-Glo); format: cell-based, human; conditions: 120 h, panel of 20 tumor cell lines
Protocol: as §2

Chain of PDGFRα (P16234 24-1089, species assumed): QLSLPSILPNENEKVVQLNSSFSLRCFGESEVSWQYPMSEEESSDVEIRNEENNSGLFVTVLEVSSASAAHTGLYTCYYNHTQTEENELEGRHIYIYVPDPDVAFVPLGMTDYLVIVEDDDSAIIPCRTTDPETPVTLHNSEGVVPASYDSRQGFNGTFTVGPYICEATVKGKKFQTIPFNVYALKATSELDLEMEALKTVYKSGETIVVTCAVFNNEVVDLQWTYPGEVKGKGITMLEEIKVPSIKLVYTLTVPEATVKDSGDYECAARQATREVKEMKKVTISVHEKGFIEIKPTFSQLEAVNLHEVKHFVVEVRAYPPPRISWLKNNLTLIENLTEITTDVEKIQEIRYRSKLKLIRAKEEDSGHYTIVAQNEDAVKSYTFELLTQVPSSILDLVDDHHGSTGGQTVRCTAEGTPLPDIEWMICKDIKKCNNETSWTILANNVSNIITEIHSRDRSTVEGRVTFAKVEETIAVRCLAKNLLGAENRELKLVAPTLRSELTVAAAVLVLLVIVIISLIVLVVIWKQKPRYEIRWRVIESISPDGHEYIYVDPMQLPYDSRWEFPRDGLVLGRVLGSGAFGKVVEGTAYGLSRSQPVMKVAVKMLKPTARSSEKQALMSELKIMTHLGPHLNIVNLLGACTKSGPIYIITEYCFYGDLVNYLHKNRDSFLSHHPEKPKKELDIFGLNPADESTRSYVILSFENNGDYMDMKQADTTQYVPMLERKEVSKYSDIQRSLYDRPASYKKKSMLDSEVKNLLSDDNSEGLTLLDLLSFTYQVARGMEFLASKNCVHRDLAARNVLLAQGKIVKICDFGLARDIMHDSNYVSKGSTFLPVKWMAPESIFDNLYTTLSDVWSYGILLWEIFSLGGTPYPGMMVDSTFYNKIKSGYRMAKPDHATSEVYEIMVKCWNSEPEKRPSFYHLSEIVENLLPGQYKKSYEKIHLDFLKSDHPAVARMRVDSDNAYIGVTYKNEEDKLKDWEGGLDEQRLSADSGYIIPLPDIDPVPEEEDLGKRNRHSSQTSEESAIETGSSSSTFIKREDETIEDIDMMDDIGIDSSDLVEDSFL
Chain of p38α (Q16539 whole entry): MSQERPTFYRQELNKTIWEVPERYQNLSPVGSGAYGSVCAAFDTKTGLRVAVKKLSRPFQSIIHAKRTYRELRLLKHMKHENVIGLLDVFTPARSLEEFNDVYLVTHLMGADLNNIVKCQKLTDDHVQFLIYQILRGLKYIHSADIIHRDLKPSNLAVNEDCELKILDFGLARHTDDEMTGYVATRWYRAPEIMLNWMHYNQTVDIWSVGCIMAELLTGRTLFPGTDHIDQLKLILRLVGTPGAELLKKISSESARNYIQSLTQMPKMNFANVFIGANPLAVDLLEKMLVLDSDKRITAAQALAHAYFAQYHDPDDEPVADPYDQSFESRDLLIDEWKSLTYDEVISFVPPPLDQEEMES
Chain of CHK1 (O14757 whole entry): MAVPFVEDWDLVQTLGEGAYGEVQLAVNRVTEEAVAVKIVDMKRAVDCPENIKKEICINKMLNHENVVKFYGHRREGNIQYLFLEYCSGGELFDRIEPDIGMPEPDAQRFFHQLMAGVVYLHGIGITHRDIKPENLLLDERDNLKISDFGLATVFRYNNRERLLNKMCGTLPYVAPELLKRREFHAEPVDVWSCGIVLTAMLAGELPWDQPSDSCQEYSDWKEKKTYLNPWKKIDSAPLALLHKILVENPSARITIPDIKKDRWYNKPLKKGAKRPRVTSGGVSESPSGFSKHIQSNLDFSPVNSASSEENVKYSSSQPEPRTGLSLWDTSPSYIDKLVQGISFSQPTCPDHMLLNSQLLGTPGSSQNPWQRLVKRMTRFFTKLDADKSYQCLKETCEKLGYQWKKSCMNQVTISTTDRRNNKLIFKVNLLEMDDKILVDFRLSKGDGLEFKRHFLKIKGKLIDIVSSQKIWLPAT
Chain of EGFR (P00533 25-1210): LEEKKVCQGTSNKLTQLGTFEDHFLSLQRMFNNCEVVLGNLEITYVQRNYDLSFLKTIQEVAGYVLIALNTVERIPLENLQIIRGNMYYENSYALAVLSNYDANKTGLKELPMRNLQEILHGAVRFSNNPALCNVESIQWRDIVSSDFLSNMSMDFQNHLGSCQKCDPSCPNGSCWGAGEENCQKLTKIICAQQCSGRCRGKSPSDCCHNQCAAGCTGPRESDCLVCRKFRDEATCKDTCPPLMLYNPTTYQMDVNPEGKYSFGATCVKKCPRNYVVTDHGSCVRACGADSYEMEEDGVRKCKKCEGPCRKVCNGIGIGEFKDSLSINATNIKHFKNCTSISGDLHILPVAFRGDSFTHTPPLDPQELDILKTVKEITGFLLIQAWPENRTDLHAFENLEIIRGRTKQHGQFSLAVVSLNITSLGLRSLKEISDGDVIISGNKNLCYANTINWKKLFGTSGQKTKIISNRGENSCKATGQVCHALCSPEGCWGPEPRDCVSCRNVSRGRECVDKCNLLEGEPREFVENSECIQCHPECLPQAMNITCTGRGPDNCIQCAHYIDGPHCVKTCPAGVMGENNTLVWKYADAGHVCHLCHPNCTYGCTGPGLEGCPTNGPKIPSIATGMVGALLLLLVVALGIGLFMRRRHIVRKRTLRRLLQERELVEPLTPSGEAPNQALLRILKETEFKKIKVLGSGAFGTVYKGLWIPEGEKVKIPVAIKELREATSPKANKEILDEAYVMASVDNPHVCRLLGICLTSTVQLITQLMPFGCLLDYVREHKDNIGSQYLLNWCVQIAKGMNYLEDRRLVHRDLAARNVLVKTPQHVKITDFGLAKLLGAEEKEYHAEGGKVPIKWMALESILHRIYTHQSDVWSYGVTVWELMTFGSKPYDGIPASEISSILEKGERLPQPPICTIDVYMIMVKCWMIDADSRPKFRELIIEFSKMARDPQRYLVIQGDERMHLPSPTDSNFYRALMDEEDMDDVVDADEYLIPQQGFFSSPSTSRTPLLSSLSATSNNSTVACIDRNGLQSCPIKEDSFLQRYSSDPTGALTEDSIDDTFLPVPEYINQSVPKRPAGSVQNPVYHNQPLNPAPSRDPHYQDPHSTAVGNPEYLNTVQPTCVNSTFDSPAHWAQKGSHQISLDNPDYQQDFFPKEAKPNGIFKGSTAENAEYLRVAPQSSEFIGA
Chain of BRAF (P15056 whole entry): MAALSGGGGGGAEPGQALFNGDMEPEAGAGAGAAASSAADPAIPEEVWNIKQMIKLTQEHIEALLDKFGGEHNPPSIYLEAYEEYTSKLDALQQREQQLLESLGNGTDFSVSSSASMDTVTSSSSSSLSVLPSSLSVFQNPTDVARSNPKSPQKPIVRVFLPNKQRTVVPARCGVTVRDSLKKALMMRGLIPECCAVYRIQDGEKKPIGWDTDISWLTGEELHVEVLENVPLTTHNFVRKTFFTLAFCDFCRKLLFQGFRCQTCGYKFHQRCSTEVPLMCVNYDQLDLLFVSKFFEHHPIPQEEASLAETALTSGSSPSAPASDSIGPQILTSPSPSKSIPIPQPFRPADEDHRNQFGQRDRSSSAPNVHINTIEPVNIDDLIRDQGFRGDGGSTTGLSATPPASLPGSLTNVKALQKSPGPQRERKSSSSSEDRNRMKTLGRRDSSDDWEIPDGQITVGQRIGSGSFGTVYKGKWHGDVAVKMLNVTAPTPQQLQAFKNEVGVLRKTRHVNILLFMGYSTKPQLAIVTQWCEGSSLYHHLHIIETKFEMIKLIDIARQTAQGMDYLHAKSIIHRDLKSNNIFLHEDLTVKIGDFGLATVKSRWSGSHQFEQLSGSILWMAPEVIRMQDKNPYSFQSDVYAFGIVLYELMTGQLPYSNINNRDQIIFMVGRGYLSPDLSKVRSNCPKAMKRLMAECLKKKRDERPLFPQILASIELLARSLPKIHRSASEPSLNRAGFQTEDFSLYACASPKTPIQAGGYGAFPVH
Chain of AKT1 (P31749 whole entry): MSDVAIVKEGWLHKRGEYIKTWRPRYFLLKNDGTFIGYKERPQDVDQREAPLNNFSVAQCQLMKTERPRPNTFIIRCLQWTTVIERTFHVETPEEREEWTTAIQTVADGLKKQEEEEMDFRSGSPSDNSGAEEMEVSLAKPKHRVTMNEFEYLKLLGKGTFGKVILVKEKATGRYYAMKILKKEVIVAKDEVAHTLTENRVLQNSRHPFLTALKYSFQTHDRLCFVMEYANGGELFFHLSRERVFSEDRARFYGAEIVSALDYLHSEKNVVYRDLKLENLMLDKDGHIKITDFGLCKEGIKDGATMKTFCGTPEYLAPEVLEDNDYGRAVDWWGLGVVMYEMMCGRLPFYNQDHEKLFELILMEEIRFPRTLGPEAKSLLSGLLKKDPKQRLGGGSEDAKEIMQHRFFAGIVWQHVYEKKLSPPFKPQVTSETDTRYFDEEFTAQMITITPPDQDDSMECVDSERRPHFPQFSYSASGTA

## Cc1ccc(NC(=O)c2cccc(CN3CCN(C)CC3)c2)cc1Oc1nccc(-c2cccnc2)n1.Cl [TGI1002, N-(4-methyl-3-((4-(pyridin-3-yl)-pyrimidin-2-yl)oxy)phenyl)-3-((4-methylpiperazin-1-yl)methyl)benzamide hydrochloride]
tubulin
  amounts of tubulin in depolymerized fraction S and polymerized fraction P: not affected
PP2A
  PP2A activity enhanced compared to untreated cells: 144.67 ± 5.51%
ABL2
  inhibition at 1 µM: 19.2%
PI3Kγ
  inhibition at 1 µM: 2.65%
FLT1(VEGFR1)
  inhibition at 1 µM: 1.97%
p38α
  inhibition at 1 µM: 2.17%
RON
  inhibition at 1 µM: 0.14%
EphA1
  inhibition at 1 µM: 1.58%
NEK2
  inhibition at 1 µM: 1.56%
PI3Kβ
  inhibition at 1 µM: 0%
CHK1
  inhibition at 1 µM: 3.61%
TrkA
  inhibition at 1 µM: 3.11%
PKCγ
  inhibition at 1 µM: 0.79%
RAF1
  inhibition at 1 µM: 5.37%
AKT1
  inhibition at 1 µM: 5.07%
TrkB
  inhibition at 1 µM: 5.58%
FGR
  inhibition at 1 µM: 7.53%
c-KIT(V654A)
  inhibition at 1 µM: 11.7%
BRAF
  inhibition at 1 µM: 2.3%
SRC
  inhibition at 1 µM: 1.09%
PDGFRα; PDGFRα kinase activity
  IC50: 3.28 µM
PDGFRα; TGI1002 1 µM, means of two independent experiments, read-out: Inhibitory effect (%)
  inhibition at 1 µM: 43.5%
AMPK (A1/B1/G1)
  inhibition at 1 µM: 0.19%
EGFR
  inhibition at 1 µM: 0%
c-KIT
  inhibition at 1 µM: 15.2%
BaF3-p210^T315I cells
  median survival: 32.5 days
HT-29 cells
  cytotoxicity: cytotoxic effects
PC-3 cells
  cytotoxicity: cytotoxic effects
